In patent US20140322708A1, “METHOD FOR MEASURING SOMATIC DNA […]” (Albert Einstein College of Medicine of Yeshiva University, priority 2011, published 2014):
Where “and” joins values, the source holds several entries; their conditions need not be identical. Equal entries are not always repeated.

What was measured:
S2 cells [1] = assay: Single cell whole genome sequencing for somatic point mutations after ENU treatment; assay type: cell-based, Drosophila melanogaster
Method: To assess somatic mutation spectra in single cells in a genome-wide manner S2 cells derived from Drosophila melanogaster, an organism with a genome size of 160 MB, were used. The strategy followed is outlined in FIG. 1B. Individual single cells were picked from an S2 cell culture 72-h after treatment with 4.2 mM of the powerful point mutagen N-ethyl-N-nitrosourea (ENU) or mock treated with solvent (control). At 72-h post-treatment virtually no lesions remain (6,7) and cell survival is greater than 90% (8) (results not shown). Each single cell was lysed and subjected to whole genome amplification (WGA) using an optimized multiple displacement amplification (MDA) protocol (see Methods and Materials)(9). The amplified cells were first screened for locus dropout by qPCR using primer pairs distributed over the different chromosomes (FIG. 5). DNA from the cells displaying the least amount of dropout was fragmented and processed to generate sequencing libraries for the Illumina HiSeq platform. In this way libraries of three untreated and three ENU-treated cells were prepared. For comparison, a similar library was made from unamplified total genomic DNA from the untreated S2 cell population. To identify all possible mutations, either spontaneously formed in the unexposed, control cells or induced by ENU in the treated cells, the libraries were sequenced from both ends, generating between 50-100 million 108-bp paired-end reads per cell. Alignment to the Drosophila reference sequence (dm3) was performed using BWA (10), and post-processing was completed using the Genome Analysis Toolkit (GATK) (11). […] Since ENU is a point mutagen the subsequent analysis was based on this type of mutations only. The pipeline developed for somatic point mutation discovery is described in further detail in the Methods and Materials section. Briefly, aligned sequence data from the unamplified sample and a single cell was compared and all differences with the reference sequence were recorded as variants. Variants with sufficient coverage (20×) in both the unamplified and the single cell sample were classified as “germline” or “somatic” based on whether the variant was shared between the two samples. Somatic variants were further processed using a strand-bias filter and were visually validated using the Integrative Genomics Viewer (IGV) (12).
Single cells were collected under an inverted microscope by hand-held capillaries, deposited in PCR tubes along with 2 μl of culture medium, and immediately frozen on dry ice. […] The reaction products were purified using AMPure XP magnetic beads (Agencourt, Beverly, Mass.) and the reaction yield was measured using the NanoDrop 1000 spectrophotometer (Nanodrop Technologies LLC, Wilmington, Del.). […]

S2 cells [2] = assay: Cell survival after ENU treatment; assay type: cell-based, Drosophila melanogaster; settings: 72-h post-treatment, 4.2 mM ENU
Method: To assess somatic mutation spectra in single cells in a genome-wide manner S2 cells derived from Drosophila melanogaster, an organism with a genome size of 160 MB, were used. The strategy followed is outlined in FIG. 1B. Individual single cells were picked from an S2 cell culture 72-h after treatment with 4.2 mM of the powerful point mutagen N-ethyl-N-nitrosourea (ENU) or mock treated with solvent (control). At 72-h post-treatment virtually no lesions remain (6,7) and cell survival is greater than 90% (8) (results not shown). Each single cell was lysed and subjected to whole genome amplification (WGA) using an optimized multiple displacement amplification (MDA) protocol (see Methods and Materials)(9). The amplified cells were first screened for locus dropout by qPCR using primer pairs distributed over the different chromosomes (FIG. 5). […] To identify all possible mutations, either spontaneously formed in the unexposed, control cells or induced by ENU in the treated cells, the libraries were sequenced from both ends, generating between 50-100 million 108-bp paired-end reads per cell. […] Briefly, aligned sequence data from the unamplified sample and a single cell was compared and all differences with the reference sequence were recorded as variants. […]

[3] = tested on: mouse embryonic fibroblast (MEF); assay: Single cell reduced representation (MseI) sequencing for somatic point mutations after ENU treatment; assay type: cell-based
Method: Therefore, the procedure shown in FIG. 1B was slightly modified, using a reduced representation approach based on restriction enzyme digestion. For this purpose mouse embryonic fibroblast (MEF) populations were used either treated with 4.2 mM ENU or mock-treated with solvent only. Instead of preparing sequencing libraries directly using randomly fragmented DNA, whole genome amplified DNA was digested from two treated and two control MEFs, as well as unamplified genomic DNA from the MEF population, with MseI, a four-base cutter with a TTAA cleavage site. Following digestion an agarose gel size-selection was performed for fragments between 250-bp and 350-bp, corresponding to a target region of approximately 300 MB. The fragments were sequenced using 121-bp single-end reads. […] Due to the nature of the reduced representation library, the strand bias filter could not be used and therefore a more stringent mutant read frequency cutoff (>40%) was adopted. Out of the 300-MB target region, 220 MB (73%) had sufficient coverage (10×) in the unamplified control sample and 85-93 MB (39-42%) of the 220 MB overlapped with regions of sufficient coverage in the single MEFs. Due to the absence of a sufficient number of heterozygous SNPs in the MEF cell line, allele dropout was estimated using the distribution of mutant read frequencies found in the ENU-treated MEF cells.
Single cells were collected under an inverted microscope by hand-held capillaries, deposited in PCR tubes along with 2 μl of culture medium, and immediately frozen on dry ice. Cells were lysed and amplified using the REPLI-g UltraFast Mini kit (Qiagen, Santa Clara, Calif.) according to the manufacturer's instructions, but using an initial 30-min amplification at 30° C. followed by an 18-hour amplification at 35° C. The reaction products were purified using AMPure XP magnetic beads (Agencourt, Beverly, Mass.) and the reaction yield was measured using the NanoDrop 1000 spectrophotometer (Nanodrop Technologies LLC, Wilmington, Del.). Reactions with yield of greater than 1 μg were tested for locus dropout at eight loci using comparative Ct measurements from real-time PCR (StepOne Plus, Applied Biosystems, Foster City, Calif.) performed with Fast SYBR® Green Master Mix (Foster City, Calif.). Up to 5 μg of DNA from samples displaying the least biased amplification was used as input for Illumina libraries. DNA was either randomly fragmented (S2 cells) or digested (MEFs) with 50 U of Msei (NEB, Ipswich, Mass.). Digested DNA (MEFs) was end-repaired using Mung Bean Nuclease (NEB, Ipswich, Mass.) and then used as input for the Illumina library preparation. S2 libraries were size-selected to 475-525-bp and MEF libraries were size selected to 250-350-bp using agarose gel electrophoresis. […] The aligned sequence data was processed using genome analysis toolkit (GATK) (e.g., available at www.broadinstitute.org) to realign reads containing indels or a high entropy of mismatches, recalibrate the base quality scores, and to compute coverage data and statistics. Somatic point mutations and germline variation were scored using a pipeline composed of SAMtools mpileup command (e.g., available at samtools.sourceforge.net/mpileup.shtml), VarScan somatic command (e.g., available at varscan.sourceforge.net/somatic-calling.html) and a custom script to parse and filter the VarScan output. Somatic events found in multiple single cells were discarded, as were events found in at least one read in the unamplified control sample. […]

S2 cells [4] = assay: Reduced representation paired-end sequencing assay for genome rearrangements in bleomycin-treated cells; assay type: cell-based, Drosophila melanogaster; settings: bleomycin-treated S2 cells as compared to untreated cells
Method: Genomic DNA from cultured mouse (embryonic fibroblasts; MEFs) and fly (Drosophila melanogaster embryo cell line; S2) cells was analyzed by paired-end (“PE”) sequencing after a restriction enzyme digestion (HindIII for mouse and PstI for fly) and size selection. The fly and mouse genomes are structured very differently, with the mouse genome consisting of close to 50% repetitive DNA and the fly genome only 3%. The libraries were sequenced using a paired-end kit on the Illumina® Genome Analyzer fix with a read length of 85 bp. […] Alterations in the distance between two PE reads relative to the distance predicted by the RefSeq indicate putative genome rearrangements. […] First, any read pairs that had mapping quality scores lower than 30 (e.g. see Li H, Ruan J, Durbin R. (2008) Mapping short DNA sequencing reads and calling variants using mapping quality scores. Genome Research 18:1851-1858, hereby incorporated by reference in its entirety, for mapping scores) were filtered out. This removed repeat-spanning reads with ambiguous placement on the reference genome. […]
It was reasoned that treatment of S2 cells with a clastogen should give rise to elevated frequencies of genome rearrangements. […] The frequencies of genome rearrangements were expressed per read pair. […]

[5] = single S2 cell, 72-h after treatment with 4.2 mM ENU
[6] = single MEF, treated with 4.2 mM ENU

| Compound | majority of the ENU-induced mutations (mutation spectrum) (S2 cells [1]; S2 cells) | induction of point mutations (S2 cells [1]; on average in the exposed S2 cells vs control cells) | Mutations per Mb (S2 cells [1]; [5]) | Point mutations (S2 cells [1]; [5]) | cell survival (S2 cells [2]) | induction of point mutations ([3]; ENU-treated MEF cells vs control MEFs) | majority of the ENU-induced mutations (mutation spectrum) ([3]; MEF cells) | ENU-induced mutation frequency in MEF cells, higher than that found in the S2 cells ([3]; mutations per MB, MEF vs S2) | Mutations per Mb [3, 6] | Point mutations [3, 6] | increase in genomic mutation frequency (genome rearrangements per read pair) (S2 cells [4]) |
| --- | --- | --- | --- | --- | --- | --- | --- | --- | --- | --- | --- |
| CCN(N=O)C(N)=O [ENU, N-ethyl-N-nitrosourea] | T->A, T->C and G->A mutations | 7.5 fold | 3.27 and 2.54 and 3.18 | 938 and 482 and 690 | greater than 90% | 35 fold | T->A, T->C and G->A mutations | 30% | 3.97 and 3.91 | 426 and 446 |  |
| bleomycin |  |  |  |  |  |  |  |  |  |  | approximately 3 fold |
